For data set [1], the system named is Quadruplex DNA. As to the kind of experiment: Binding affinity to Bcl-2 G4-quadruplex DNA (5'-AGGGCGCGGGAGGAAGGGGGCGGGA-3') (unknown origin) assessed as perturbations of imino protons of G7,G19 and G23 within 3' G-tetrad with no significant change in aromatic proton regions upto compound:G4 ratio of 6:1 by ID IH NMR analysis. It is filed as nucleic-acid assay.

The subject of a further data set is A-375. Put plainly: Antiproliferative activity against human A-375 cells assessed as decrease in cell survival incubated for 48 hrs by MTT assay. The format is functional, cell-based. The following applies: A-375, 48 h.
Data set [2] is described as follows: Drug uptake in human Jurkat cells assessed as localization of compound in nuclear and perinuclear region at IC50 incubated for 24 hrs by NucSpot Live 488 probe based fluorescence microscopy. The format is ADME, cell-based.
The subject of data set [3] is Hairpin duplex DNA. As to the kind of experiment: Stabilization of Hairpin duplex DNA (5'-CGCGAATTCGCGTTTCGCGAATTCGCG-3') (unknown origin) assessed as change in melting temperature at 5 equiv. by CD melting based analysis. It is filed as nucleic-acid assay.
Data set [4] is described as follows: Metal chelating activity assessed as compound-Fe3+ complex formation at compound:iron concentration ratio of 3:1 and measured at pH 6 to 8.
Data set [5] relates to Quadruplex DNA. As to the kind of experiment: Binding affinity to Bcl-2 G4-quadruplex DNA (5'-AGGGCGCGGGAGGAAGGGGGCGGGA-3') (unknown origin) assessed as perturbations of imino protons of G1,G17 and G21 within 5' G-tetrad with no significant change in aromatic proton regions upto compound:G4 ratio of 6:1 by ID IH NMR analysis. The format is nucleic-acid assay.
Data set [6] is described as follows: Metal chelating activity assessed as affinity to Fe3+ at compound:iron concentration ratio of 3:1 and measured at pH 7.4.
The test system of data set [7] is Quadruplex DNA. As to the kind of experiment: Binding affinity to c-Myc G4-quadruplex DNA (5'-TGAGGGTGGGTAGGGTGGGTAA-3') (unknown origin) assessed as perturbations of imino protons of G7,G11,G16,G20 within 5' G-tetrad at compound:G4 ratio of 2:1 by 1D 1H NMR analysis. It is filed as nucleic-acid assay.
Data set [8] deals with Quadruplex DNA. Put plainly: Stabilization of Parallel c-Kit2 G4-quadruplex DNA (5'-CGGGCGGGCGCTAGGGAGGGT-3') (unknown origin) assessed as change in melting temperature at 5 equiv. by CD melting based analysis. It is filed as nucleic-acid assay.
For data set [9], the target named is Hairpin duplex DNA. As to the kind of experiment: Binding affinity to Cy5-labeled Hairpin duplex DNA (Cy5-CGCGAATTCGCGTTTCGCGAATTCGCG-3') (unknown origin) assessed as equilibrium dissociation constant measured at 25 degC by microscale thermophoresis analysis. The format is nucleic-acid assay.
In data set [10] the target is Quadruplex DNA. Put plainly: Binding affinity to Cy5-labeled c-Myc G4-quadruplex DNA (Cy5-TGAGGGTGGGTAGGGTGGGTAA-3') (unknown origin) assessed as equilibrium dissociation constant measured at 25 degC by microscale thermophoresis analysis. The format is nucleic-acid assay.
In data set [11] the test system is Quadruplex DNA. As to the kind of experiment: Stabilization of Hybrid Bcl2 G4-quadruplex DNA (5'-AGGGCGCGGGAGGAAGGGGGCGGGA-3') (unknown origin) assessed as change in melting temperature at 5 equiv. by CD melting based analysis. It is filed as nucleic-acid assay.
A further data set concerns MCF7. Put plainly: Antiproliferative activity against human MCF7 cells assessed as decrease in cell survival incubated for 48 hrs by MTT assay. It is filed as functional, cell-based. The following applies: MCF7, 48 h.
Data set [12] relates to Quadruplex DNA. As to the kind of experiment: Stabilization of human Hybrid Tel23 G4-quadruplex DNA (5'-TAGGGTTAGGGTTAGGGTTAGGG-3') assessed as change in melting temperature at 5 equiv. by CD melting based analysis. It is filed as nucleic-acid assay.
The subject of data set [13] is Quadruplex DNA. As to the kind of experiment: Binding affinity to c-Myc G4-quadruplex DNA (5'-TGAGGGTGGGTAGGGTGGGTAA-3') (unknown origin) assessed as perturbations of imino protons of G8,G12,G17,G21 within middle G-tetrad at compound:G4 ratio of 2:1 by 1D 1H NMR analysis. The format is nucleic-acid assay.
Data set [14] can be described thus: Metal chelating activity assessed as compound-Fe3+ complex formation at compound:iron concentration ratio of 1:1 and measured in acidic medium.
Data set [15] is described as follows: Metal chelating activity assessed as compound-Fe3+ complex formation at compound:iron concentration ratio of 2:1 and measured in acidic medium.
Data set [16] deals with Jurkat. As to the kind of experiment: Induction of apoptosis in human Jurkat cells assessed as reduction in Bcl-2 expression at IC50 incubated for 24 to 48 hrs by western blot analysis. The following applies: time 24-48 hrs. The format is functional, cell-based.
Data set [17] deals with Jurkat. Put plainly: Induction of apoptosis in human Jurkat cells assessed as induction of phosphotidylserine exposure at IC50 incubated for 48 hrs by fluorescence microscopy. It is filed as functional, cell-based.
Data set [18] is described as follows: Metal chelating activity assessed as free Fe2+ chelation by measuring decrease in cellular LIP content at IC50 measured after 48 hrs by red fluorescent probe based fluorescence microscopy.
Data set [19] deals with Quadruplex DNA. As to the kind of experiment: Binding affinity to Cy5-labeled Bcl-2 G4-quadruplex DNA (Cy5-AGGGCGCGGGAGGAAGGGGGCGGGA-3') (unknown origin) assessed as equilibrium dissociation constant measured at 25 degC by microscale thermophoresis analysis. It is filed as nucleic-acid assay.
Data set [20] has as its system Quadruplex DNA. As to the kind of experiment: Stabilization of Parallel c-Myc G4-quadruplex DNA (5'-TGAGGGTGGGTAGGGTGGGTAA-3') (unknown origin) assessed as change in melting temperature at 5 equiv. by CD melting based analysis. The format is nucleic-acid assay.
Data set [21] concerns Quadruplex DNA. Put plainly: Binding affinity to c-Myc G4-quadruplex DNA (5'-TGAGGGTGGGTAGGGTGGGTAA-3') (unknown origin) assessed as perturbations of aromatic protons of T23, A24 and A25 with no significant change in aromatic protons of loops at compound:G4 ratio of 2:1 by 1D 1H NMR analysis. It is filed as nucleic-acid assay.
In data set [22] the test system is Quadruplex DNA. Put plainly: Binding affinity to c-Myc G4-quadruplex DNA (5'-TGAGGGTGGGTAGGGTGGGTAA-3') (unknown origin) assessed as perturbations of imino protons of G9,G13,G18,G22 within 3' G-tetrad at compound:G4 ratio of 2:1 by 1D 1H NMR analysis. The format is nucleic-acid assay.
Data set [23] concerns the target Quadruplex DNA. As to the kind of experiment: Binding affinity to human Cy5-labeled Tel23 G4-quadruplex DNA (Cy5-TAGGGTTAGGGTTAGGGTTAGGG-3') assessed as equilibrium dissociation constant measured at 25 degC by microscale thermophoresis analysis. The format is nucleic-acid assay.
Data set [24] relates to Quadruplex DNA. Put plainly: Stabilization of Parallel c-Kit1 G4-quadruplex DNA (5'-AGGGAGGGCGCTGGGAGGAGGG-3') (unknown origin) assessed as change in melting temperature at 5 equiv. by CD melting based analysis. It is filed as nucleic-acid assay.
A further data set concerns HCT-116. As to the kind of experiment: Antiproliferative activity against human HCT-116 cells assessed as decrease in cell survival incubated for 48 hrs by MTT assay. The format is functional, cell-based. To be noted: HCT-116, 48 h.
For data set [25], the system named is Jurkat. As to the kind of experiment: Antiproliferative activity against human Jurkat cells assessed as decrease in cell survival incubated for 48 hrs by MTT assay. The format is functional, cell-based.
For data set [26], the system named is Quadruplex DNA. As to the kind of experiment: Binding affinity to Bcl-2 G4-quadruplex DNA (5'-AGGGCGCGGGAGGAAGGGGGCGGGA-3') (unknown origin) assessed as perturbations of imino protons of G8,G18 and G22 within middle G-tetrad with no significant change in aromatic proton regions upto compound:G4 ratio of 6:1 by ID IH NMR analysis. It is filed as nucleic-acid assay.

For data set [27], the system named is Jurkat. Put plainly: Antiproliferative activity human Jurkat cells assessed as reduction in cell number incubated for 48 hrs by phase contrast light microscopy. The format is functional, cell-based. The following applies: dose 10-100 µM.
A short description of data set [28]: Cytotoxicity against human HaCaT cells assessed as decrease in cell survival incubated for 48 hrs by MTT assay. It is filed as toxicity, cell-based.
Data set [29] has as its target Quadruplex DNA. As to the kind of experiment: Binding affinity to Cy5-labeled c-Kit2 G4-quadruplex DNA (Cy5-CGGGCGGGCGCTAGGGAGGGT-3') (unknown origin) assessed as equilibrium dissociation constant measured at 25 degC by microscale thermophoresis analysis. The format is nucleic-acid assay.

Results on 9 compounds are retold here after ChEMBL document CHEMBL6096674, “Design, Synthesis, and Anticancer Activity of Drug-like Iron Chelators/G-Quadruplex Binders as Synergic Dual Targeting Agents” (J Med Chem, 2025).

Calls of active or inactive are those of the source. The rule behind the calls is not given here.

`CN(C)CCCNC(=O)c1ccc2[nH]c(=O)c3cc(=O)c(O)cn3c2c1`: the result (in the data set with Quadruplex DNA [1]; in data set [4]; with Quadruplex DNA [5]; with Quadruplex DNA [7]; with Quadruplex DNA [13]; in data set [14]) was Active. Besides, the result (in [15]; in the data set on Jurkat [16]; in the data set on Jurkat [17]; in data set [18]; with Quadruplex DNA [21]; with Quadruplex DNA [22]) was Active. The result in the data set on Quadruplex DNA [26] was Active. Also, the 50% inhibitory concentration (IC50) is above 200 µM in the data set with A-375, above 200 µM in the data set on MCF7, above 200 µM in the data set on HCT-116 and 30 µM in the data set on Jurkat [25]. In data set [2], the Drug uptake entry is given as “Active”. The shift in melting temperature (ΔTm) in the data set with Hairpin duplex DNA [3] came to 1.8 °C; in the data set with Quadruplex DNA [8] it was 10.1 °C; with Quadruplex DNA [11] it was 8.7 °C; with Quadruplex DNA [12], 3.8 °C; in the data set with Quadruplex DNA [20], 7.4 °C; in the data set on Quadruplex DNA [24], 5.5 °C. For the same compound, the pFe3+ in data set [6] was 16.8. For the same compound, the Kd on Hairpin duplex DNA [9] was above 20 µM; at Quadruplex DNA [10], 0.3 µM; on Quadruplex DNA [19], 0.5 µM; at Quadruplex DNA [23] it was 3.1 µM; on Quadruplex DNA [29], 1.1 µM. For the same compound, in the data set with Jurkat [27], the Activity entry is “Dose-dependent-effect”. For the same compound, the IC50 at 48 h in data set [28] was above 200 µM.

As to `CN(C)CCCNC(=O)c1ccc2[nH]c(=O)c3cc(=O)c(OCc4ccccc4)cn3c2c1`, the IC50 with A-375 is above 200 µM; in the data set with MCF7, above 200 µM; with HCT-116, above 200 µM; in the data set with Jurkat [25], 55 µM. The ΔTm was found to be 1.5 °C with Hairpin duplex DNA [3]; 27.6 °C in the data set on Quadruplex DNA [8]; 15.6 °C in the data set on Quadruplex DNA [11]; 5.1 °C in the data set with Quadruplex DNA [12]; 12 °C in the data set on Quadruplex DNA [20]; 9.6 °C with Quadruplex DNA [24]. The outcome in data set [18] was inactive. In the data set on Jurkat [27], the Activity entry is “Dose-dependent-effect”. Also, in data set [28], the half-inhibitory concentration (IC50) at 48 h is above 200 µM.

Turning to `O=C(NCCN1CCCC1)c1ccc2[nH]c(=O)c3cc(=O)c(O)cn3c2c1`, the thermal shift (ΔTm) is 2.5 °C with Hairpin duplex DNA [3]; 6.6 °C in the data set on Quadruplex DNA [8]; 1.6 °C with Quadruplex DNA [11]; 2.7 °C in the data set with Quadruplex DNA [12]; 5 °C with Quadruplex DNA [20]; 3.6 °C in the data set with Quadruplex DNA [24].

As to `O=C(O)c1ccc2[nH]c(=O)c3cc(=O)c(OCc4ccccc4)cn3c2c1`, the ΔTm in the data set with Hairpin duplex DNA [3] is 1 °C; in the data set on Quadruplex DNA [8] it was 3.3 °C; in the data set on Quadruplex DNA [11] it was 1.4 °C; in the data set on Quadruplex DNA [12] it was 1 °C; in the data set on Quadruplex DNA [20], 0.5 °C; with Quadruplex DNA [24], -0.1 °C.

With `Cc1c(O)c(=O)ccn1C`, the pFe3+ in data set [6] came out at 20.

As to `O=C(NCc1ccccc1)c1ccc2[nH]c(=O)c3cc(=O)c(OCc4ccccc4)cn3c2c1`, the thermal shift (ΔTm) in the data set with Hairpin duplex DNA [3] stood at 0.3 °C; in the data set with Quadruplex DNA [8], 7.5 °C; with Quadruplex DNA [11], 3.6 °C; in the data set on Quadruplex DNA [12], 1.2 °C; with Quadruplex DNA [20] it was 3.7 °C; in the data set on Quadruplex DNA [24], 0.1 °C.

As to `COc1cn2c(cc1=O)c(=O)[nH]c1ccc(C(=O)NCCCN(C)C)cc12`, the thermal shift (ΔTm) in the data set on Hairpin duplex DNA [3] is 1.8 °C; in the data set with Quadruplex DNA [8], 17.3 °C; with Quadruplex DNA [11], 13.5 °C; in the data set with Quadruplex DNA [12] it was 4.2 °C; with Quadruplex DNA [20], 5.9 °C; with Quadruplex DNA [24] it was 9.3 °C.

As to `O=C(NCCN1CCOCC1)c1ccc2[nH]c(=O)c3cc(=O)c(O)cn3c2c1`, the shift in melting temperature (ΔTm) with Hairpin duplex DNA [3] was 2.8 °C; in the data set on Quadruplex DNA [8] it was 5.5 °C; in the data set with Quadruplex DNA [11], -0.5 °C; in the data set with Quadruplex DNA [12], 2.3 °C; in the data set with Quadruplex DNA [20], 1.7 °C; with Quadruplex DNA [24], 2.2 °C.

For `N=C(N)NCCCNC(=O)c1ccc2[nH]c(=O)c3cc(=O)c(O)cn3c2c1`, the ΔTm was 0.5 °C with Hairpin duplex DNA [3]; 8.6 °C with Quadruplex DNA [8]; 8.5 °C with Quadruplex DNA [11]; 2.8 °C with Quadruplex DNA [12]; 3.6 °C in the data set with Quadruplex DNA [20]; 3.2 °C in the data set with Quadruplex DNA [24].
